According to patent US20130165489A1, “Small Molecule Modulators of HIV-1 Capsid Stability and Methods Thereof” (The Trustees of the University of Pennsylvania, priority 2010, published 2013):

What was measured:
[1] = test system: HIV-1 CMU08 (subtype E clinical isolate); experiment: Anti-HIV efficacy in human PBMCs, isolate CMU08; type: cell-based
Procedure: (§1) HIV human peripheral blood mononuclear cell (PBMC) assays were performed as described previously (Lanier et al., 2010, Antimicrob. Agents Chemother. 54:2901-09; Ptak et al., 2008, Antimicrob. Agents Chemother. 52:1302-17). Briefly, fresh PBMCs, seronegative for HIV and hepatitis B virus (HBV), were isolated from blood samples of the screened donors (Biological Specialty Corporation, Colmar, Pa.) by using lymphocyte separation medium (LSM; density, 1.078±0.002 g/ml; Cellgro; Mediatech, Inc.) by following the manufacturer's instructions. Cells were stimulated by incubation in 4 μg/mL phytohemagglutinin (PHA; Sigma) for 48 to 72 h. Mitogenic stimulation was maintained by the addition of 20 U/mL recombinant human interleukin-2 (rhIL-2; R&D Systems, Inc.) to the culture medium. PHA-stimulated PBMCs from at least two donors were pooled, diluted in fresh medium, and added to 96-well plates at 5×10^4 cells/well. Cells were infected (final multiplicity of infection [MOI] of ≅0.1) in the presence of 9 different concentrations of test compounds (triplicate wells/concentration) and incubated for 7 days. […] Following removal of supernatant samples, compound cytotoxicity was measured by the addition of 3-(4,5-dimethylthiazol-2-yl)-5-(3-carboxymethoxyphenyl)-2-(4-sulfophenyl)-2H-tetrazolium (MTS; CellTiter 96 reagent; Promega) by following the manufacturer's instructions. […]

[2] = test system: HIV-1 93BR020 (subtype F clinical isolate); experiment: Anti-HIV efficacy in human PBMCs, isolate 93BR020; type: cell-based
Procedure: as §1

[3] = target: HIV-1NL4-3 CA (Human immunodeficiency virus type 1 group M subtype B, UniProt P12493); experiment: Surface plasmon resonance direct binding to HIV-1 CA
Procedure: Interaction analyses were performed on a Biacore 3000 optical biosensor (Biacore, Piscataway Township, NJ) with simultaneous monitoring of two flow cells Immobilization of the CA protein to CM7 sensor chips was performed following the standard amine coupling procedure according to the manufacturer's specifications. Briefly, carboxyl groups on the sensor chip surface were activated by injection of 50 μL of a solution containing 0.2 M EDC (1-ethyl-3-[3-dimethylamino-propyl]carbodiimide hydrochloride) and 0.05 M NHS(N-hydroxysuccinimide) at a flow rate of 5 μL min^−1. Next, the 50 μL of CA protein at a concentration of 6 μM in pH 5.0, 10 mM sodium acetate buffer was passed over the chip surface at 25° C. at a flow rate of 5 μL min^−1 Then, after unreacted protein had been washed out, excess active ester groups on the sensor surface were capped by the injection of 50 μL of 1 M ethanolamine (pH 8.0) at a flow rate of 5 μL min^−1. A reference surface with the nonspecific anti-gp120 antibody 17b (Thali et al., 1993, J. Virol. 67:3978-88) immobilized was generated at the same time under the same conditions and was used as background to correct nonspecific binding and for instrument and buffer artifacts.
Stock solutions of CMPD-E and CMPD-F were prepared by dissolving the compounds in 100% dimethyl sulfoxide (DMSO) to a final concentration of 10 mM. To prepare the sample for analysis, 30 μL of the compound stock solution was added to sample preparation buffer (25 mM Tris-HCl, 150 mM NaCl, pH 7.5) to a final volume of 1 mL and mixed thoroughly. Preparation of analyte in this manner ensured that the concentration of DMSO was matched with that of running buffer with 3% DMSO. Lower concentrations of each compound were then prepared by twofold serial dilutions into running buffer (25 mM Tris-HCl, 150 mM NaCl, 3% DMSO, pH 7.5). These compound dilutions were then injected over the control and CA surfaces at a flow rate of 50 μL min^−1, for a 2-min association phase, followed by a 5-min dissociation phase. […]

[4] = test system: HIV-1 93IN101 (subtype C clinical isolate); experiment: Anti-HIV efficacy in human PBMCs, isolate 93IN101; type: cell-based
Procedure: as §1

[5] = in vitro; type: cell-based; settings: human
Procedure: HIV human peripheral blood mononuclear cell (PBMC) assays were performed as described previously (Lanier et al., 2010, Antimicrob. Agents Chemother. 54:2901-09; Ptak et al., 2008, Antimicrob. Agents Chemother. 52:1302-17). Briefly, fresh PBMCs, seronegative for HIV and hepatitis B virus (HBV), were isolated from blood samples of the screened donors (Biological Specialty Corporation, Colmar, Pa.) by using lymphocyte separation medium (LSM; density, 1.078±0.002 g/ml; Cellgro; Mediatech, Inc.) by following the manufacturer's instructions. Cells were stimulated by incubation in 4 μg/mL phytohemagglutinin (PHA; Sigma) for 48 to 72 h. Mitogenic stimulation was maintained by the addition of 20 U/mL recombinant human interleukin-2 (rhIL-2; R&D Systems, Inc.) to the culture medium. PHA-stimulated PBMCs from at least two donors were pooled, diluted in fresh medium, and added to 96-well plates at 5×10^4 cells/well. Cells were infected (final multiplicity of infection [MOI] of ≅0.1) in the presence of 9 different concentrations of test compounds (triplicate wells/concentration) and incubated for 7 days. […] Following removal of supernatant samples, compound cytotoxicity was measured by the addition of 3-(4,5-dimethylthiazol-2-yl)-5-(3-carboxymethoxyphenyl)-2-(4-sulfophenyl)-2H-tetrazolium (MTS; CellTiter 96 reagent; Promega) by following the manufacturer's instructions.

[6] = Human immunodeficiency virus 1, PBMC

**Q.** For O=C(O)c1ccc(-c2nc(-c3ccccc3)c(-c3ccccc3)[nH]2)cc1 [CMPD-E, 4-(4,5-diphenyl-1H-imidazol-2-yl)benzoic acid], which IC50 [1, 6] is on record?
**A.** The IC50 was 100 µM.

**Q.** What about the “Antiviral index (TC50/IC50)” value ([1]; PBMC) of the same compound?
**A.** Its value is over 1.

**Q.** And the IC50 [2, 6]?
**A.** The IC50 was 65.6 µM.

**Q.** And the “Antiviral index (TC50/IC50)” value ([2]; PBMC)?
**A.** Its value is over 1.53.

**Q.** And the Kd [3]?
**A.** The Kd was 66.3 ± 4.8 µM.

**Q.** And the “interaction with sensor-chip immobilized HIV-1 CA” value ([3]; SPR)?
**A.** Its value is “directly interacted”.

**Q.** And the IC50 [4, 6]?
**A.** The IC50 was 48.4 µM.

**Q.** What about the “Antiviral index (TC50/IC50)” value ([4]; PBMC) of the same compound?
**A.** The value was over 2.07.

**Q.** What about the CC50 at 7 days [5] of the same compound?
**A.** The CC50 at 7 days was over 100 µM.
